# Patent US20160238590A1, “COMPOSITIONS AND METHODS RELATED TO OAT SENSITIVITY” (IMMUSANT, INC., priority 2013, published 2016)
# Where no end group is shown, it is not given here. [ ]: non-standard residue; d: D form. pGlu = O=C1CC[C@@H](C(=O)O)N1
# Tests used:
# Experiment in all cases: IFN-γ ELISpot with T cell clone
# Type in all cases: cell-based, human
# Patient 6 TCC-01 = settings: TCC Patient 6 TCC-01 (Table 5); mean no antigen 2
# Procedure: (§1) Peripheral blood mononuclear cells (PBMC) were isolated from heparinized whole blood using Ficoll-Paque™ Plus density-gradient centrifugation (GE Healthcare). IFN-γ ELISpot (Mabtech) was set up as previously described^8.
# (§2) Isolation of TCC from CD patients was carried out as previously described^8. Briefly, CFSE-labeled PBMC were incubated with antigen for 7 days in IMDM supplemented with 5% heat-inactivated pooled human serum (PHS), 2 mM GlutaMAX™, 100 μM MEM non-essential amino acids (both from Gibco, Invitrogen), and 50 μM 2-mercaptoethanol (Sigma). Proliferated cells were single-cell sorted into 96-well plates containing IL-2, IL-4, anti-CD3 mAb, irradiated feeder cells (allogeneic PBMC and JY-EBV). TCC were expanded and maintained in IL-2 and IL-4 and tested for specificity by ELISpot with irradiated HLA-matched PBMC as antigen-presenting cells. Expanded clones were tested for HLA-DQ restriction, TCR Vbeta usage, and with lysine scans to work out minimal epitopes. See Table 1 below for TCC and epitope information.
# Patient 2 TCC-01 = settings: TCC Patient 2 TCC-01 (Table 5); mean no antigen 1.1
# Procedure: as §1, §2
# Patient 14 TCC-01 = settings: TCC Patient 14 TCC-01 (Table 5); mean no antigen 11.3, high background, SFU >25 considered as positive responses
# Procedure: as §1, §2
substance,measurement,setting,value
"pEPFPEQPEQPYPQQ ([pGlu]PFPEQPEQPYPQQ) [wheat peptide, CAC11056.1 (53-66) [Q53 to pyroglutamate, Q57 to E, Q60 to E], reference compound]",IFN-γ ELISpot response (raw SFU),Patient 6 TCC-01,1 SFU
same,IFN-γ ELISpot response (raw SFU),Patient 2 TCC-01,150 SFU
same,IFN-γ ELISpot response (raw SFU),Patient 14 TCC-01,19 SFU
"pEQPFPEQPFPEQPQPY ([pGlu]QPFPEQPFPEQPQPY) [barley peptide, AFM77740.1 (21-36) [Q21 to pyroglutamate, Q26 to E, Q31 to E]]",IFN-γ ELISpot response (raw SFU),Patient 6 TCC-01,64 SFU
same,IFN-γ ELISpot response (raw SFU),Patient 2 TCC-01,229 SFU
same,IFN-γ ELISpot response (raw SFU),Patient 14 TCC-01,27 SFU
"pEQPFPQPEQPQLPF ([pGlu]QPFPQPEQPQLPF) [wheat peptide, AAK84772.1 (126-139) [Q126 to pyroglutamate, Q133 to E], reference compound]",IFN-γ ELISpot response (raw SFU),Patient 6 TCC-01,23 SFU
same,IFN-γ ELISpot response (raw SFU),Patient 2 TCC-01,4 SFU
same,IFN-γ ELISpot response (raw SFU),Patient 14 TCC-01,14 SFU
"pEQPFPQPEQPTPIQ ([pGlu]QPFPQPEQPTPIQ) [rye peptide, AAB58403.1 (65-78) [Q65 to pyroglutamate, Q72 to E], reference compound]",IFN-γ ELISpot response (raw SFU),Patient 6 TCC-01,34 SFU
same,IFN-γ ELISpot response (raw SFU),Patient 2 TCC-01,1 SFU
same,IFN-γ ELISpot response (raw SFU),Patient 14 TCC-01,20 SFU
"pEQPFTQPEQPTPIQ ([pGlu]QPFTQPEQPTPIQ) [wheat peptide, AAG17702.1 (78-91) [Q78 to pyroglutamate, Q85 to E], reference compound]",IFN-γ ELISpot response (raw SFU),Patient 6 TCC-01,65 SFU
same,IFN-γ ELISpot response (raw SFU),Patient 2 TCC-01,0 SFU
same,IFN-γ ELISpot response (raw SFU),Patient 14 TCC-01,13 SFU
"pEQPQPYPEQPQPYP ([pGlu]QPQPYPEQPQPYP) [barley peptide, AFM77740.1 (31-44) [Q31 to pyroglutamate, Q38 to E]]",IFN-γ ELISpot response (raw SFU),Patient 6 TCC-01,52 SFU
same,IFN-γ ELISpot response (raw SFU),Patient 2 TCC-01,316 SFU
same,IFN-γ ELISpot response (raw SFU),Patient 14 TCC-01,27 SFU
